Results: ChEMBL document CHEMBL4152377, “Design and Activity of Specific Hypoxia-Inducible Factor-2α (HIF-2α) Inhibitors for the Treatment of Clear Cell Renal Cell Carcinoma: Discovery of Clinical Candidate ( S)-3-((2,2-Difluoro-1-hydroxy-7-(methylsulfonyl)-2,3-dihydro-1 H-inden-4-yl)oxy)-5-fluorobenzonitrile (PT2385)” (J Med Chem, 2018)
The source made the active and inactive calls. The calls are words filed in the database; no cut-off is given here.

Columns and labels:
[1] = Volume of distribution at steady state in Beagle dog at 3 mg/kg, iv by UPLC analysis; type: ADME, organism-based, Canis lupus familiaris; details: in vivo, read-out: Vdss
[2] = Clearance in Sprague-Dawley rat at 3 mg/kg, iv by UPLC analysis; type: ADME, organism-based; details: in vivo
Cytochrome P450 2C19 = Cytochrome P450 2C19 (Homo sapiens, UniProt P33261); test: Inhibition of CYP2C19 in human liver microsomes using S-mephenytoin as substrate after 20 mins in presence of NADPH by LC-MS/MS analysis; type: ADME
Canis familiaris [3] = test: AUCt in Beagle dog at 10 mg/kg, po via gavage by UPLC analysis; type: ADME, organism-based, Canis lupus familiaris; details: in vivo
[4] = Half life in Beagle dog at 10 mg/kg, po via gavage by UPLC analysis; type: ADME, organism-based, Canis lupus familiaris; details: in vivo
Canis familiaris [5] = test: Oral bioavailability in Beagle dog at 10 mg/kg administered via gavage by UPLC analysis; type: ADME, organism-based, Canis lupus familiaris; details: in vivo
[6] = Volume of distribution at steady state in Sprague-Dawley rat at 3 mg/kg, iv by UPLC analysis; type: ADME, organism-based; details: in vivo, read-out: Vdss
hERG (KCNH2) = hERG (KCNH2) (Homo sapiens, UniProt Q12809); test: Inhibition of human ERG expressed in mammalian cells at 10 uM after 3 mins by QPatch clamp assay; type: cell-based; details: mammalian cells that express human ERG
[7] = Plasma concentration in mouse after 12 hrs; type: ADME, cell-free
[8] = Intrinsic clearance in mouse liver microsomes at 1 uM measured up to 30 mins by LC-MS/MS analysis; type: ADME, microsome; details: read-out: CLH
[9] = Protein binding in monkey plasma at 10 uM after 4 hrs by LC-MS/MS analysis; type: ADME, cell-free, Macaca mulatta; details: rhesus monkey, read-out: PPB (converted)
786-0 = test: In vivo inhibition of HIF-2alpha in SCID/Biege mouse xenografted with human 786-O cells assessed as reduction in tumor derived VEGFA protein levels at 10 mg/kg, po bid for 3 days and measured after 12 hrs post last dose by ELISA; type: functional, organism-based
Cytochrome P450 1A2 = target: T1, Cytochrome P450 1A2 (Homo sapiens, UniProt P05177); test: Inhibition of CYP1A2 in human liver microsomes using phenacetin after 10 mins in presence of NADPH by LC-MS/MS analysis; type: ADME
T1 sequence (P05177 whole entry): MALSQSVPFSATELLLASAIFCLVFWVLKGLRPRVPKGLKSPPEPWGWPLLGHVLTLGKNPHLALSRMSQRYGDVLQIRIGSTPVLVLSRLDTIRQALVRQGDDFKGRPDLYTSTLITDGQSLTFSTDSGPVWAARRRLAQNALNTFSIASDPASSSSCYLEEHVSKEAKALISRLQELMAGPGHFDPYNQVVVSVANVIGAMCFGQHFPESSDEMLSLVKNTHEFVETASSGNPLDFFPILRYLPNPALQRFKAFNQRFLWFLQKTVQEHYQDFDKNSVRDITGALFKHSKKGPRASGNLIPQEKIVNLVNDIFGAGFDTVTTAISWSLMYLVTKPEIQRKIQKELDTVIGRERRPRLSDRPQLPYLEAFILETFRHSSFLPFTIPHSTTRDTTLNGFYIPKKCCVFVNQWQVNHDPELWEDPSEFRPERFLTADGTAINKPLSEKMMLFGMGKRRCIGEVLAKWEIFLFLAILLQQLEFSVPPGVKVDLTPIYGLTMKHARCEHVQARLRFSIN

Rattus norvegicus = test: Drug metabolism in Sprague-Dawley rat assessed as formation of 3-( (4-( ( D ifluoromethyl)-1,1-dioxido-3-oxo-2,3-dihydrobenzo[b]thiophen-5-yl)oxy)-5-fluorobenzonitrile at 10 mg/kg, po by UPLC analysis; type: ADME, organism-based; details: in vivo

Chain of hERG (KCNH2) (Q12809 whole entry): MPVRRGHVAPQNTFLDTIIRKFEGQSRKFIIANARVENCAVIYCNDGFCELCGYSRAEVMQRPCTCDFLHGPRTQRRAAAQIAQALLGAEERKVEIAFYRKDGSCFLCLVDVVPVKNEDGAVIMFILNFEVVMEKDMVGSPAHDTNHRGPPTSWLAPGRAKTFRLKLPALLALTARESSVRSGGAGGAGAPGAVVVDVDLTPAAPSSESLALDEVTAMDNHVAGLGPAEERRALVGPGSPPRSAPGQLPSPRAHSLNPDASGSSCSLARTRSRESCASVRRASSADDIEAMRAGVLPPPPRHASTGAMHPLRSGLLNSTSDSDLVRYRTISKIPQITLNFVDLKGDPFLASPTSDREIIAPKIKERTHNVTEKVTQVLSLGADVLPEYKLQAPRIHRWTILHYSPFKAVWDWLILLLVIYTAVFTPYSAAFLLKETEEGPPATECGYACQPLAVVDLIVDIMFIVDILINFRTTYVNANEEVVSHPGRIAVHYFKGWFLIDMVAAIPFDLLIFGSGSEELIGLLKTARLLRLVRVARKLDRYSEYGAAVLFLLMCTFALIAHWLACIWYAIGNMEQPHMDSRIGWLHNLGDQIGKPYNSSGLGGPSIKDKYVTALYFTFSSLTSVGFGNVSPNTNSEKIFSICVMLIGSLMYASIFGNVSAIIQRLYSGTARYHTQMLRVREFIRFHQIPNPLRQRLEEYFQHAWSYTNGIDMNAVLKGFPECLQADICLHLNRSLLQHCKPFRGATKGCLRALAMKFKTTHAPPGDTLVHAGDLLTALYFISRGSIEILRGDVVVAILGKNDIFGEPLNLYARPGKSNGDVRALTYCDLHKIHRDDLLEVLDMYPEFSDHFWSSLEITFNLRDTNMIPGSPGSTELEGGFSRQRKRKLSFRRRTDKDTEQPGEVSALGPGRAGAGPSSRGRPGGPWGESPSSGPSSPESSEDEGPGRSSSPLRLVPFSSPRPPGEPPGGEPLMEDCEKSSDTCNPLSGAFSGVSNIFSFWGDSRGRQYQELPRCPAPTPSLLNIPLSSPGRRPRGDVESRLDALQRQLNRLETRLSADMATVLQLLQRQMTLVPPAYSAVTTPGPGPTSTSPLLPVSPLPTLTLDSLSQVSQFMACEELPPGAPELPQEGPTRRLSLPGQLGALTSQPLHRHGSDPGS
Chain of Cytochrome P450 2C19 (P33261 whole entry): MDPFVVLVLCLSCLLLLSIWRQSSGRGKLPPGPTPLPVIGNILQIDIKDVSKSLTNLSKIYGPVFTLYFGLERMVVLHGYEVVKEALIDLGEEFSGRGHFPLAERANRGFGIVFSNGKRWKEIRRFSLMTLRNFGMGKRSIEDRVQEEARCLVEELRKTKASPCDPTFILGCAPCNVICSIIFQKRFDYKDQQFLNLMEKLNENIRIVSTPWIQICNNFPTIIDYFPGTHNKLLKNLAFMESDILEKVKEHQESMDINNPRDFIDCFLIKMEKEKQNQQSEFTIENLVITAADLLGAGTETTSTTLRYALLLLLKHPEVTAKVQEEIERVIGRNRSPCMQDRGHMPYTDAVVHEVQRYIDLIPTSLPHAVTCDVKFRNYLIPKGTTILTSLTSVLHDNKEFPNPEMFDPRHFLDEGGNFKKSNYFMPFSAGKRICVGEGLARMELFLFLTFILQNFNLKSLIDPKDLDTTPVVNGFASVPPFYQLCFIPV

CS(=O)(=O)c1ccc(Oc2cc(F)cc(C#N)c2)c2c1[C@H](O)C(F)(F)C2
Vd [1]: 8.6 L/kg
clearance [2]: 34.6 mL/min/kg
IC50 (Cytochrome P450 2C19): 46 µM
AUCt (Canis familiaris [3]): 6.2 µM·h
half-life [4]: 11 h
F (Canis familiaris [5]): 87%
Vd [6]: 6.24 L/kg
inhibition at 0.05 h, 10 µM (hERG (KCNH2)): 8.2%
concentration at 12 h [7]: 460 nM
CLint scaled at 1 µM [8]: 19.9 mL/min/kg
fraction unbound at 4 h, 10 µM [9]: 0.26
inhibition (786-0): Active
IC50 (Cytochrome P450 1A2): > 50 µM

N#Cc1cc(F)cc(Oc2ccc3c(c2C(F)F)[C@@H](O)C(F)(F)S3(=O)=O)c1
Vd [1]: 3.1 L/kg
clearance [2]: 27.2 mL/min/kg
AUCt (Canis familiaris [3]): 12.6 µM·h
half-life [4]: 6.7 h
F (Canis familiaris [5]): 72%
Vd [6]: 3.5 L/kg
inhibition at 0.05 h, 10 µM (hERG (KCNH2)): 17%
concentration at 12 h [7]: 220 nM
CLint scaled at 1 µM [8]: 5.9 mL/min/kg
fraction unbound at 4 h, 10 µM [9]: 0.38
inhibition (786-0): Active
IC50 (Cytochrome P450 1A2): > 50 µM
Drug metabolism (Rattus norvegicus): Metabolite_Detected
